According to the supplement of paper PMC10307832:

How the values were obtained:
Assay in all cases: relative viability (nuclei count vs DMSO), 5 days (fraction); higher = more cells survive
[1] = compound: CC1=C(C=C(C=C1)NC(=O)C2=CC(=CC=C2)C(C)(C)C#N)NC3=CC4=C(C=C3)N=CN(C4=O)C [AZ628] + N=C(N)NC(=N)NCCc1ccccc1 [Phenformin] (partner 250 µM)
Outline: (§1)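 Nuclei were stained with Hoechst during a one-step fixation (final 0.05% Triton X-100, 1% formaldehyde, 1 ug/ml Hoechst) carried out 5 days after dosing, then counted on 4× images. The cells, lung cancer lines in 1536-well plates, had been dosed by pin tool the day after seeding with one drug alone or a fixed anchor-drug dose plus five library-drug doses (not always all listed) in √10 steps. Relative viability is the nuclei count in treated wells divided by that in vehicle wells, and each value is the median of duplicate plates.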

[2] = compound: CC1=C(C=C(C=C1)NC(=O)C2=CC(=CC=C2)C(C)(C)C#N)NC3=CC4=C(C=C3)N=CN(C4=O)C [AZ628] + C[C@]1(O)C[C@@H](c2nc(-c3ccc4ccc(-c5ccccc5)nc4c3)c3c(N)nccn32)C1 [Linsitinib] (partner 1 µM)
Outline: as §1

[3] = compound: C1CC2=C(C1)C=C(C=C2)OC3=NC(=C4C(=N3)N(C=N4)CC5=CC=C(C=C5)C6=CC=CC=C6)N[C@@H](CC7=CC=CC=C7)CO [QS11] + O=C(c1cc(Cc2n[nH]c(=O)c3ccccc23)ccc1F)N1CCN(C(=O)C2CC2)CC1 [Olaparib] (partner 8 µM)
Outline: as §1

[4] = compound: C1CC2=C(C1)C=C(C=C2)OC3=NC(=C4C(=N3)N(C=N4)CC5=CC=C(C=C5)C6=CC=CC=C6)N[C@@H](CC7=CC=CC=C7)CO [QS11] + Cc1cc(Nc2cc(N3CCN(C)CC3)nc(Sc3ccc(NC(=O)C4CC4)cc3)n2)n[nH]1 [Tozasertib] (partner 0.1 µM)
Outline: as §1

In the case of NCI-H1915, the relative viability ([1]; first compound 0.08 µM) was 0.404, the relative viability ([1]; first compound 0.253 µM) was 0.388 and the relative viability ([1]; first compound 0.8 µM) was 0.374. It also gave a relative viability ([1]; first compound 2.53 µM) of 0.351, a relative viability ([1]; first compound 8 µM) of 0.233 and a relative viability ([2]; first compound 0.08 µM) of 1.08. For the same cell line, the relative viability ([2]; first compound 0.253 µM) was 1.11, the relative viability ([2]; first compound 0.8 µM) was 1.07 and the relative viability ([2]; first compound 2.53 µM) was 0.85. The relative viability ([2]; first compound 8 µM) was 0.683, the relative viability ([3]; first compound 0.08 µM) was 0.227 and the relative viability ([3]; first compound 0.253 µM) was 0.25. For the same cell line, the relative viability ([3]; first compound 2.53 µM) was 0.259, the relative viability ([3]; first compound 8 µM) was 0.275 and the relative viability ([4]; first compound 0.08 µM) was 0.472. For the same cell line, the relative viability ([4]; first compound 0.253 µM) was 0.494, the relative viability ([4]; first compound 2.53 µM) was 0.432 and the relative viability ([4]; first compound 8 µM) was 0.374.

In the case of NCI-H2009, the relative viability ([1]; first compound 0.08 µM) was 0.447, the relative viability ([1]; first compound 0.253 µM) was 0.395 and the relative viability ([1]; first compound 0.8 µM) was 0.283. The relative viability ([1]; first compound 2.53 µM) was 0.346, the relative viability ([1]; first compound 8 µM) was 0.273 and the relative viability ([2]; first compound 0.08 µM) was 1.06. The relative viability ([2]; first compound 0.253 µM) was 0.973, the relative viability ([2]; first compound 0.8 µM) was 0.724 and the relative viability ([2]; first compound 2.53 µM) was 1.05. The relative viability ([2]; first compound 8 µM) was 0.358, the relative viability ([3]; first compound 0.08 µM) was 0.596 and the relative viability ([3]; first compound 0.253 µM) was 0.816. It also gave a relative viability ([3]; first compound 0.8 µM) of 0.679, a relative viability ([3]; first compound 2.53 µM) of 0.613 and a relative viability ([3]; first compound 8 µM) of 0.49. For the same cell line, the relative viability ([4]; first compound 0.08 µM) was 0.756, the relative viability ([4]; first compound 0.253 µM) was 0.789 and the relative viability ([4]; first compound 0.8 µM) was 0.595. For the same cell line, the relative viability ([4]; first compound 2.53 µM) was 0.58 and the relative viability ([4]; first compound 8 µM) was 0.434.

COR-L 105 gave a relative viability ([1]; first compound 0.08 µM) of 0.541, a relative viability ([1]; first compound 0.253 µM) of 0.483 and a relative viability ([1]; first compound 0.8 µM) of 0.4. It also gave a relative viability ([1]; first compound 2.53 µM) of 0.488, a relative viability ([1]; first compound 8 µM) of 0.323 and a relative viability ([2]; first compound 0.08 µM) of 0.933. The relative viability ([2]; first compound 0.253 µM) was 0.897, the relative viability ([2]; first compound 0.8 µM) was 0.934 and the relative viability ([2]; first compound 2.53 µM) was 0.857. It also gave a relative viability ([2]; first compound 8 µM) of 0.651, a relative viability ([3]; first compound 0.08 µM) of 0.764 and a relative viability ([3]; first compound 0.253 µM) of 0.56. It also gave a relative viability ([3]; first compound 0.8 µM) of 0.674, a relative viability ([3]; first compound 2.53 µM) of 0.716 and a relative viability ([3]; first compound 8 µM) of 0.66. The relative viability ([4]; first compound 0.08 µM) was 0.364, the relative viability ([4]; first compound 0.253 µM) was 0.296 and the relative viability ([4]; first compound 0.8 µM) was 0.335. It also gave a relative viability ([4]; first compound 2.53 µM) of 0.391 and a relative viability ([4]; first compound 8 µM) of 0.336.

ABC-1 gave a relative viability ([1]; first compound 0.08 µM) of 0.274, a relative viability ([1]; first compound 0.253 µM) of 0.188 and a relative viability ([1]; first compound 0.8 µM) of 0.205. The relative viability ([1]; first compound 2.53 µM) was 0.211, the relative viability ([1]; first compound 8 µM) was 0.235 and the relative viability ([2]; first compound 0.08 µM) was 0.857. It also gave a relative viability ([2]; first compound 0.253 µM) of 0.81, a relative viability ([2]; first compound 0.8 µM) of 0.854 and a relative viability ([2]; first compound 2.53 µM) of 0.719. It also gave a relative viability ([2]; first compound 8 µM) of 0.799, a relative viability ([3]; first compound 0.08 µM) of 0.655 and a relative viability ([3]; first compound 0.253 µM) of 0.833. For the same cell line, the relative viability ([3]; first compound 0.8 µM) was 0.85, the relative viability ([3]; first compound 2.53 µM) was 0.563 and the relative viability ([3]; first compound 8 µM) was 1.04. It also gave a relative viability ([4]; first compound 0.08 µM) of 0.191, a relative viability ([4]; first compound 0.253 µM) of 0.157 and a relative viability ([4]; first compound 0.8 µM) of 0.174. For the same cell line, the relative viability ([4]; first compound 2.53 µM) was 0.168 and the relative viability ([4]; first compound 8 µM) was 0.183.

Cell Line NCI-H1793 has a relative viability ([1]; first compound 0.08 µM) of 0.433, a relative viability ([1]; first compound 0.253 µM) of 0.25 and a relative viability ([1]; first compound 0.8 µM) of 0.333. The relative viability ([1]; first compound 2.53 µM) was 0.314, the relative viability ([1]; first compound 8 µM) was 0.302 and the relative viability ([2]; first compound 0.08 µM) was 1.32. It also gave a relative viability ([2]; first compound 0.253 µM) of 1.11, a relative viability ([2]; first compound 0.8 µM) of 1.09 and a relative viability ([2]; first compound 2.53 µM) of 0.687. The relative viability ([2]; first compound 8 µM) was 0.602, the relative viability ([3]; first compound 0.08 µM) was 0.979 and the relative viability ([3]; first compound 0.253 µM) was 0.837. For the same cell line, the relative viability ([3]; first compound 0.8 µM) was 0.827, the relative viability ([3]; first compound 2.53 µM) was 0.847 and the relative viability ([3]; first compound 8 µM) was 1.06. For the same cell line, the relative viability ([4]; first compound 0.08 µM) was 0.305, the relative viability ([4]; first compound 0.253 µM) was 0.328 and the relative viability ([4]; first compound 0.8 µM) was 0.257. The relative viability ([4]; first compound 2.53 µM) was 0.32 and the relative viability ([4]; first compound 8 µM) was 0.338.

With NCI-H1792 the relative viability ([1]; first compound 0.08 µM) was 0.309, the relative viability ([1]; first compound 0.253 µM) was 0.258 and the relative viability ([1]; first compound 0.8 µM) was 0.225. For the same cell line, the relative viability ([1]; first compound 2.53 µM) was 0.158, the relative viability ([1]; first compound 8 µM) was 0.115 and the relative viability ([2]; first compound 0.08 µM) was 0.583. For the same cell line, the relative viability ([2]; first compound 0.253 µM) was 0.54, the relative viability ([2]; first compound 0.8 µM) was 0.435 and the relative viability ([2]; first compound 2.53 µM) was 0.48. For the same cell line, the relative viability ([2]; first compound 8 µM) was 0.339, the relative viability ([3]; first compound 0.253 µM) was 0.442 and the relative viability ([3]; first compound 0.8 µM) was 0.459. For the same cell line, the relative viability ([3]; first compound 2.53 µM) was 0.519 and the relative viability ([3]; first compound 8 µM) was 0.394.

ChaGo-K-1 showed a relative viability ([1]; first compound 0.08 µM) of 0.559, a relative viability ([1]; first compound 0.253 µM) of 0.464 and a relative viability ([1]; first compound 0.8 µM) of 0.398. The relative viability ([1]; first compound 2.53 µM) was 0.459, the relative viability ([1]; first compound 8 µM) was 0.373 and the relative viability ([3]; first compound 0.253 µM) was 0.448. For the same cell line, the relative viability ([3]; first compound 0.8 µM) was 0.352, the relative viability ([3]; first compound 2.53 µM) was 0.397 and the relative viability ([3]; first compound 8 µM) was 0.387. For the same cell line, the relative viability ([4]; first compound 0.08 µM) was 0.232, the relative viability ([4]; first compound 0.253 µM) was 0.256 and the relative viability ([4]; first compound 0.8 µM) was 0.238. The relative viability ([4]; first compound 2.53 µM) was 0.216 and the relative viability ([4]; first compound 8 µM) was 0.23.

NCI-H2342 was tested, and the relative viability ([1]; first compound 0.08 µM) was 0.657, the relative viability ([1]; first compound 0.253 µM) was 0.469 and the relative viability ([1]; first compound 0.8 µM) was 0.653. The relative viability ([1]; first compound 2.53 µM) was 0.65, the relative viability ([1]; first compound 8 µM) was 0.646 and the relative viability ([3]; first compound 0.08 µM) was 0.352. The relative viability ([3]; first compound 0.253 µM) was 0.395, the relative viability ([3]; first compound 0.8 µM) was 0.494 and the relative viability ([3]; first compound 2.53 µM) was 0.479. For the same cell line, the relative viability ([3]; first compound 8 µM) was 0.441, the relative viability ([4]; first compound 0.08 µM) was 0.479 and the relative viability ([4]; first compound 0.253 µM) was 0.46. It also gave a relative viability ([4]; first compound 0.8 µM) of 0.62, a relative viability ([4]; first compound 2.53 µM) of 0.474 and a relative viability ([4]; first compound 8 µM) of 0.436.

NCI-H1975 showed a relative viability ([1]; first compound 0.08 µM) of 0.421, a relative viability ([1]; first compound 0.253 µM) of 0.388 and a relative viability ([1]; first compound 0.8 µM) of 0.403. The relative viability ([1]; first compound 2.53 µM) was 0.384, the relative viability ([1]; first compound 8 µM) was 0.215 and the relative viability ([2]; first compound 0.08 µM) was 0.908. It also gave a relative viability ([2]; first compound 0.253 µM) of 0.949, a relative viability ([2]; first compound 0.8 µM) of 0.895 and a relative viability ([2]; first compound 2.53 µM) of 0.904. It also gave a relative viability ([2]; first compound 8 µM) of 0.647, a relative viability ([3]; first compound 0.08 µM) of 0.814 and a relative viability ([3]; first compound 0.253 µM) of 0.891. The relative viability ([3]; first compound 0.8 µM) was 0.814, the relative viability ([3]; first compound 2.53 µM) was 1.07 and the relative viability ([3]; first compound 8 µM) was 0.688. The relative viability ([4]; first compound 0.08 µM) was 0.823, the relative viability ([4]; first compound 0.253 µM) was 1.01 and the relative viability ([4]; first compound 0.8 µM) was 0.585. The relative viability ([4]; first compound 2.53 µM) was 0.408 and the relative viability ([4]; first compound 8 µM) was 0.225.
